For data set [1], the system named is Staphylococcus aureus. In words: Antibacterial activity against methicillin-resistant Staphylococcus aureus assessed as reduction in bacterial growth. In kind it is functional.
Data set [2] can be described thus: Hemolytic activity in human RBC. In kind it is toxicity, cell-based, Erythrocyte. The conditions noted are these: human red blood cells (erythrocytes).
The subject of the next data set is Enterococcus faecium. In words: Antibacterial activity against vancomycin-resistant Enterococcus faecium assessed as reduction in bacterial growth. In kind it is functional.
The next data set relates to Klebsiella pneumoniae. In words: Antibacterial activity against Klebsiella pneumoniae assessed as reduction in bacterial growth. In kind it is functional.
The next data set concerns Escherichia coli. In words: Antibacterial activity against Escherichia coli assessed as reduction in bacterial growth. The class given is functional.
In data set [3] the test system is Staphylococcus epidermidis. In words: Antibacterial activity against methicillin-resistant Staphylococcus epidermidis assessed as reduction in bacterial growth. The class given is functional.
For the next data set, the system named is Pseudomonas aeruginosa. In words: Antibacterial activity against Pseudomonas aeruginosa assessed as reduction in bacterial growth. The class given is functional.
Data set [4] has as its system Staphylococcus aureus. In words: In vivo antibacterial activity against methicillin-resistant Staphylococcus aureus infected in murine assessed as log reduction in bacterial burden. The class given is functional. Details: scale not given: the % may be the effect or the level left.

Each structure is given as a SMILES string. Converted amounts (≈) assume the structure as drawn.

`CCCCCCCCCNC(=O)[C@H](CCCCN)NC(=O)c1ccc(C(=O)N[C@@H](CCCCN)C(=O)NCCCCCCCCC)cc1`: the MIC in the data set on Staphylococcus aureus [1] was determined as 0.75 µg/mL (≈ 1.11 µM). The HC50 in data set [2] amounted to 180 µg/mL.
`NCCCC[C@H](N)CN(CC(=O)Nc1cc(NC(=O)CN(C[C@@H](N)CCCCN)C(=O)CC23CC4CC(CC(C4)C2)C3)cc(C(=O)NCCNC(=O)CC23CC4CC(CC(C4)C2)C3)c1)C(=O)CC12CC3CC(CC(C3)C1)C2`: the MIC (with Enterococcus faecium; in the data set on Staphylococcus aureus [1]; with Klebsiella pneumoniae; with Escherichia coli; in data set [3]; with Pseudomonas aeruginosa) was 2 µg/mL (≈ 1.88 µM) in each case. For the same compound, the Activity in the data set on Staphylococcus aureus [4] is given as 99.998%. In addition, the HC50 in data set [2] amounted to 250 µg/mL.

For orientation: MIC means the lowest concentration that inhibits growth of the organism. What is called HC50 is the concentration giving 50% haemolysis.

These data come from ChEMBL document CHEMBL5214908, “Small Scorpion-like Peptidomimetics: Potential Broad-Spectrum Membrane Active Antimicrobials without Detectable Resistance” (J Med Chem, 2021).
